Experimental data from patent publication US20250345277A1, “Ionizable Liposome, Preparation Thereof, and Application Thereof in Gene Delivery” (MAXIRNA (ZHEJIANG) TECHNOLOGY CO. LTD., priority 2021, published 2025).

How the values were obtained:
[1] = Size and polydispersity index PDI of lipid nanoparticles (Malvern Zetasizer Nano ZS); type: physicochemical; conditions: LNP ionizable lipid/DOPE/cholesterol/DSPE-PEG2000 35/16/46.5/2.5 mol% encapsulating EGFP mRNA; for Particle Size: in nm (unit assumed)
Description: (§1) The ionizable lipid compound of Example 1 was dissolved in ethanol with DOPE, cholesterol and DSPE-PEG2000 (all purchased from AVT (Shanghai) Pharmaceutical Technology Co., Ltd.) at a molar ratio of 35:16:46.5:2.5 to prepare ethanol lipid solution, and enhanced green fluorescent protein (EGFP) mRNAs (Shanghai Maximna Pharmaceutical Engineering Co., Ltd., JN-4201) were diluted in 20 mM citrate buffer (pH=6.1) to obtain mRNA aqueous solution. Ethanol lipid solution and mRNA aqueous solution were mixed at a volume ratio of 1:3 by using a microfluidic device (Micro&Nano (Shanghai) Instrument Technology Co., Ltd., model: INano™ML), LNPs were prepared with a weight ratio of approximately 10:1 between total lipids and mRNAs. The medium was replaced by ultrafiltration, ethanol was removed and volumed with DPBS. Finally, the lipid nanoparticles were filtered through a 0.2 μm sterile filter to obtain a LNP formulation encapsulating eGFP mRNA using ionizable lipid/DOPE/cholesterol/DSPE-PEG2000 (35/16/46.5/2.5 mol %), the concentration of mRNAs being 0.002 mg/mL-0.5 mg/mL.
Using Malvern Zetasizer Nano ZS (Malvern UK), the size and polydispersity index PDI of lipid nanoparticles were measured at […].

DC2.4 cells = experiment: In vitro transfection of DC2.4 cells with EGFP mRNA LNP preparation (flow cytometry); type: cell-based, mouse; conditions: DC2.4 cells; for Cell Viability / Positive Rate (EGFP): EGFP mRNA LNP, 200 ng mRNA per well, flow cytometry; for Fluorescence Intensity: EGFP mRNA expression level, normalized based on the sample with the highest fluorescence intensity
From the text: The description is based on peripheral blood mononuclear cells PBMC (Shanghai Oribiotech Co., Ltd.), human peripheral blood leukemia T cell Jurkat (ATCC), tumor infiltrating lymphocyte TIL (isolated from resected tumor tissue of a liver cancer patient, the preparation method refers to CN114763530A), mouse bone marrow-derived dendritic cells DC2.4 (Cell Bank of the Chinese Academy of Sciences), and Chinese hamster ovary cells CHO (ATCC) were used as verified cell lines for liposome transfection. PBMC, Jurkat, and TIL cells grew in suspension, while DC2.4 and CHO cells grew by adherent culture. All the operation steps of cell culture must strictly abide by the prescribed procedures, and sterile reagents is used to perform aseptic operations under a sterile workbench. The main steps are as follows: • 1) Cell recovery: the preserved cell cryopreservation solution was taken out of the −80° C. refrigerator, and was immediately put in a 37° C. water bath for rapid and continuous shaking, and was completely melted within one minute. Fresh medium was added to the 15 mL centrifuge tube in advance, and the cell solution was added to the centrifuge tube in a biological safety cabinet. A centrifuge tube of the same quality was taken and placed symmetrically in a centrifuge, centrifuged at a low speed at 1200 rpm for 5 min. After centrifugation, the supernatant was removed, and an appropriate amount of medium was slowly added along the tube wall. After the cells were evenly dispersed by blowing gently, the cell suspension was pipette and added to the culture bottle prepared in advance. The state and distribution of the cells in the early stage of recovery were observed under a microscope. The culture bottle was placed in a 5% CO2 incubator and incubated at 37° C., and the recovery time was recorded. • 2) Cell subculture: Under the microscope, if the cell density in the field of view reaches 80%-90%, the cells can be subcultured. Adherent cells need to be digested with trypsin. In order to avoid the residual serum in the culture medium to reduce the activity of trypsin, DPBS solution was added to wash once after removing the original culture medium. After remove the DPBS solution, trypsin was added to degrade the protein at the junction between cells. This separates the cells for further culture. The cells were gently shaked evenly and put into the incubator for digestion for 2 min. Immediately after the digestion was completed, an appropriate amount of medium was added to the original petri dish to terminate the digestion. Finally, the cells were carefully blowed off using a pipette and blowed until they are evenly dispersed, and then inoculated and subcultured at a certain ratio according to the experimental requirements. […]
• 1) DC2.4 cells recovery: the frozen DC2.4 cells were taken out from the −80° C. refrigerator, put in a 37° C. water bath to quickly thaw the cells, added to the preheated medium after thawing, centrifuged at 1200 rpm for 5 min, the supernatant was discarded, and an appropriate amount of DMEM medium with 10% FBS was added to resuspend the recovered DC2.4, and placed in a 5% CO2 incubator at 37° C. for activation and culture. • 2) According to the experimental arrangement, DC2.4 cells were plated on a 24-well plate one day in advance for cell transfection. Through cell counting, the number of cells and cell viability were recorded, the cell suspension were taken at 2×10^5 cells per well, then a certain volume of DMEM medium containing 10% FBS was added and mixed evenly, 1 mL of mixture was added to each well for subsequent transfection experiment. • 3) After 24 hours, the medium was gently removed 30 minutes in advance by a pipette, 1 mL DPBS was added to each well for washing and then removed, then 300 μL serum-free Opti-MEM medium was added to each well for subsequent transfection experiments.
Subsequent steps are the same as the transfection protocol for PBMC cells. […]

[2] = Entrapment efficiency of LNP preparation encapsulating EGFP mRNA; type: physicochemical; conditions: LNP ionizable lipid/DOPE/cholesterol/DSPE-PEG2000 35/16/46.5/2.5 mol% encapsulating EGFP mRNA
Description: as §1, with “mg/mL. […]” for “mg/mL.”

SMILES | PDI [1] | Particle Size [1] | Cell Viability (DC2.4 cells) [%] | Positive Rate (EGFP) (DC2.4 cells) [%] | Fluorescence Intensity (DC2.4 cells) | Entrapment Efficiency [2] [%]
CCCCCCCCCCCCCCC(O)CN(CCOCCOCCOCCN(CCOCCOCCOCCN(CC(O)CCCCCCCCCCCCCC)CC(O)CCCCCCCCCCCCCC)CCN1CCN(CCO)CC1)CC(O)CCCCCCCCCCCCCC [L-C16] | 0.085 | 111.5 | 97.2 | 64.8 | 0.06 | 92.34
CCCCCCCCCCCCCCCCC(O)CN(CCOCCOCCOCCN(CCOCCOCCOCCN(CC(O)CCCCCCCCCCCCCCCC)CC(O)CCCCCCCCCCCCCCCC)CCN1CCN(CCO)CC1)CC(O)CCCCCCCCCCCCCCCC [L-C18] | 0.182 | 124.0 | 98.6 | 59.7 | 0.02 | 91.70
